According to US20060233935A1, “Rhamnolipids in bakery products” (priority 2002, published 2006):

Experiment: Non-dairy cream filling evaluation (Example 16)
Details: 0.01% (w/w) in liquid preparation
Method: Polysorbate 60 has been replaced by rhamnolipids in non-dairy cream filling for pastries.
The following preparation process was used: The starch is mixed with the water, sugar and glucose syrup are added together with the emulsifier and titanium dioxide. After mixing until homogenous all the other ingredients are added and mixed again. The total mixture is heated until jellification of the starch.
Bake stability (180° C., 30 minutes), color, taste, speed of incorporation of fat into the mixture and possible separation of fat during conservation are evaluated (Table 16).

Substance: Polysorbate 60
- Stability during conservation: Stable during
